Laboratory results published in ChEMBL document CHEMBL1201862, “PubChem BioAssay data set” (2004).
Active and inactive are the calls of the source.

Key:
[1] = target: T1, Short transient receptor potential channel 4 (Mus musculus, UniProt Q9QUQ5); assay: block of DAMGO-driven TRPC4 calcium entry – cell-based, HEK293 TRPC4/mu-opioid, Fluo-4 calcium, dose response (AID 434942); format: functional;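 also: potency of inhibitors blocking the TRPC4 calcium response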
T1 sequence (Q9QUQ5 whole entry): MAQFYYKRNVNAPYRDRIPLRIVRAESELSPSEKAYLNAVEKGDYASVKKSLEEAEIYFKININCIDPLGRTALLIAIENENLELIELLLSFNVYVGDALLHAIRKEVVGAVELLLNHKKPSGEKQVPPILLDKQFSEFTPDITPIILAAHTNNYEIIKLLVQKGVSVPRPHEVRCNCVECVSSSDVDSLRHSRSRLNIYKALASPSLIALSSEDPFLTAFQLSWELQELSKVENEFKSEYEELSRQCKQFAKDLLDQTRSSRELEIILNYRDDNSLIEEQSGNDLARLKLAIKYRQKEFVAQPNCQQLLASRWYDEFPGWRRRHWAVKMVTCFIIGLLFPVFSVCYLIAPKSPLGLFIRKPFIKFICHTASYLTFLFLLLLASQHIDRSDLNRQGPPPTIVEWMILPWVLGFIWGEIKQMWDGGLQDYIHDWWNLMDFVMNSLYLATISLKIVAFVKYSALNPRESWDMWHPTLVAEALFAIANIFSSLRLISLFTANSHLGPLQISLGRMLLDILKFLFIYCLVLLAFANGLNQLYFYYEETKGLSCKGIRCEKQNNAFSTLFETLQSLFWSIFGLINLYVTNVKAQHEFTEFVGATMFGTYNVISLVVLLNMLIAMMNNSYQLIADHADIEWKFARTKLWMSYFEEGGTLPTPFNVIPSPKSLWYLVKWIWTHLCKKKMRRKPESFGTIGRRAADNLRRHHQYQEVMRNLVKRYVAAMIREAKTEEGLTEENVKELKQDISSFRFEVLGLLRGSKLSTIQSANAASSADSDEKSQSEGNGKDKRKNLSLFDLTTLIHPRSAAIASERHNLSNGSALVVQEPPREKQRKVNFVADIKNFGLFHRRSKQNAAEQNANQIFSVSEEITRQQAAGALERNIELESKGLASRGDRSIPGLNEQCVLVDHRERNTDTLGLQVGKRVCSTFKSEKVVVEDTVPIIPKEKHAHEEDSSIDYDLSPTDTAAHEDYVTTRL

[2] = target: T1, Short transient receptor potential channel 4; assay: calcium entry via TRPC4 opening agents – cell-based, HEK293 TRPC4/mu-opioid, Fluo-4 calcium, dose response (AID 434937); format: functional
[3] = target: T2, DNA repair protein RAD52 homolog (Homo sapiens, UniProt P43351); format: functional, biochemical
T2 sequence (P43351 whole entry): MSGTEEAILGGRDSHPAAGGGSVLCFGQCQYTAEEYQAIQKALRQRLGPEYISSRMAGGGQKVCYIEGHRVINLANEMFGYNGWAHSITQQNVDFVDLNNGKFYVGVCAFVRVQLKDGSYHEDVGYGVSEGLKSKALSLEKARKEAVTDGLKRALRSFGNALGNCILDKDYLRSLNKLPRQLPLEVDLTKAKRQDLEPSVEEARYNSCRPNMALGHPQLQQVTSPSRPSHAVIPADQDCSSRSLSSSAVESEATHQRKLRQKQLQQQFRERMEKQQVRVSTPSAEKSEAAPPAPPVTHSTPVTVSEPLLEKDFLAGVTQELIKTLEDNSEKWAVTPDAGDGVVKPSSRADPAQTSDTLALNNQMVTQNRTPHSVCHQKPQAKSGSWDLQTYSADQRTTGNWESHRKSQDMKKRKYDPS

[4] = A Cell Based Secondary Assay To Explore Cytotoxicity of Compounds that Sensitize Mycobacterium Tuberculosis to Beta-Lactam Antibiotics.; format: functional
[5] = target: T3, Replicative DNA helicase DnaB (Mycobacterium tuberculosis, UniProt P9WMR3); assay: DnaB intein splicing inhibitors, dose response, biochemical, cell-free fluorescence (AID 449749); format: functional
T3 sequence (P9WMR3 whole entry): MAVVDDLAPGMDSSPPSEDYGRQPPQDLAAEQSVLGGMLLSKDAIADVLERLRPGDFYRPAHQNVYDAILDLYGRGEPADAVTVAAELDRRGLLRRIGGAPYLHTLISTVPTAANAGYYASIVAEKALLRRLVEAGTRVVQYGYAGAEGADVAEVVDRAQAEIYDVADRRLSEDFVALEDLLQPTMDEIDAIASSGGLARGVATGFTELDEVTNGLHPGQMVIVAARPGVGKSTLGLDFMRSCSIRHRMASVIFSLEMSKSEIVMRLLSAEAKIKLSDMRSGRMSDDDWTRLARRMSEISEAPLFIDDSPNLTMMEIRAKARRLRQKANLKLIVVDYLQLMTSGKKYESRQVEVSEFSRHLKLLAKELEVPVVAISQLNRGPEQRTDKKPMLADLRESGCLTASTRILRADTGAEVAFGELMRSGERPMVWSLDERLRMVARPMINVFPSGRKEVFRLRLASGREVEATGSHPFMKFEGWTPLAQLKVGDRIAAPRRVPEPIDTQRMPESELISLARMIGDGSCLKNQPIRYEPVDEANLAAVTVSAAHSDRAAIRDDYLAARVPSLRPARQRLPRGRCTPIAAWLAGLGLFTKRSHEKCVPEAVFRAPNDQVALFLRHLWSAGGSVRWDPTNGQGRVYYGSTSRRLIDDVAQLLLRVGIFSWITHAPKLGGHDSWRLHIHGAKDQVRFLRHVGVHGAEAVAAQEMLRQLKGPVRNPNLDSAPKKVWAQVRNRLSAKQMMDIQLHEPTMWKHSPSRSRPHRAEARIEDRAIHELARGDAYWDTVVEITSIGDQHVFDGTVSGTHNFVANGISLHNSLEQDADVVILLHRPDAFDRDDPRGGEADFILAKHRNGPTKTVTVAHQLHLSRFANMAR

[6] = target: T4, Protein RecA (Mycobacterium tuberculosis, UniProt P9WHJ3); assay: Fluorescence Cell-Free Homogeneous Dose Retest to Identify Inhibitors of RecA-Intein Splicing Activity. [Related pubchem assays (depositor defined):AID2097, AID2223, AID489010, AID492950]; format: functional
T4 sequence (P9WHJ3 whole entry): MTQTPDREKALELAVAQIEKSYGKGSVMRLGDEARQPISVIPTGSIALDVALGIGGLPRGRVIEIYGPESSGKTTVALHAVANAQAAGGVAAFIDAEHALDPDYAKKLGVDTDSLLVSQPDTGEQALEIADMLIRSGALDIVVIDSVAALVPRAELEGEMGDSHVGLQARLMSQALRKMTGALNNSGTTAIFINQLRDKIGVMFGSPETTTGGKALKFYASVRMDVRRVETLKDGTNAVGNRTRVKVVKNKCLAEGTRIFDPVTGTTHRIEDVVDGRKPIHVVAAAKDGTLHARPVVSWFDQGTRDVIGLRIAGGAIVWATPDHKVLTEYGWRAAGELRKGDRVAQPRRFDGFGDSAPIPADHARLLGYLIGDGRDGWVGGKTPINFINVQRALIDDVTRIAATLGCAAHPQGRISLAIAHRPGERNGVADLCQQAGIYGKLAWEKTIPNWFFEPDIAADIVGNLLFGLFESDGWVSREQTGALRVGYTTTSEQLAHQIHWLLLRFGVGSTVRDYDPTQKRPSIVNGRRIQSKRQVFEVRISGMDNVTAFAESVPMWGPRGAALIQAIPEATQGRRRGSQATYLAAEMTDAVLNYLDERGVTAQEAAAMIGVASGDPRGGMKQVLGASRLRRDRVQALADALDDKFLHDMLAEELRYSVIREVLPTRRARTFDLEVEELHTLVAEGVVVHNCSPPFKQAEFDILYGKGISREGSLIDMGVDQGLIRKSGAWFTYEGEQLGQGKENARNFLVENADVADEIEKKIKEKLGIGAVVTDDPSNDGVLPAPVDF

[7] = target: T5, Aminopeptidase N (Plasmodium falciparum FcB1/Columbia, UniProt O96935); assay: malaria alanyl aminopeptidase activity blockers – biochemical, fluorogenic H-Leu-NHMec substrate, 1536-well (AID 1445); set-up: species or system Plasmodium falciparum 3D7, 3D7
T5 sequence (O96935 whole entry): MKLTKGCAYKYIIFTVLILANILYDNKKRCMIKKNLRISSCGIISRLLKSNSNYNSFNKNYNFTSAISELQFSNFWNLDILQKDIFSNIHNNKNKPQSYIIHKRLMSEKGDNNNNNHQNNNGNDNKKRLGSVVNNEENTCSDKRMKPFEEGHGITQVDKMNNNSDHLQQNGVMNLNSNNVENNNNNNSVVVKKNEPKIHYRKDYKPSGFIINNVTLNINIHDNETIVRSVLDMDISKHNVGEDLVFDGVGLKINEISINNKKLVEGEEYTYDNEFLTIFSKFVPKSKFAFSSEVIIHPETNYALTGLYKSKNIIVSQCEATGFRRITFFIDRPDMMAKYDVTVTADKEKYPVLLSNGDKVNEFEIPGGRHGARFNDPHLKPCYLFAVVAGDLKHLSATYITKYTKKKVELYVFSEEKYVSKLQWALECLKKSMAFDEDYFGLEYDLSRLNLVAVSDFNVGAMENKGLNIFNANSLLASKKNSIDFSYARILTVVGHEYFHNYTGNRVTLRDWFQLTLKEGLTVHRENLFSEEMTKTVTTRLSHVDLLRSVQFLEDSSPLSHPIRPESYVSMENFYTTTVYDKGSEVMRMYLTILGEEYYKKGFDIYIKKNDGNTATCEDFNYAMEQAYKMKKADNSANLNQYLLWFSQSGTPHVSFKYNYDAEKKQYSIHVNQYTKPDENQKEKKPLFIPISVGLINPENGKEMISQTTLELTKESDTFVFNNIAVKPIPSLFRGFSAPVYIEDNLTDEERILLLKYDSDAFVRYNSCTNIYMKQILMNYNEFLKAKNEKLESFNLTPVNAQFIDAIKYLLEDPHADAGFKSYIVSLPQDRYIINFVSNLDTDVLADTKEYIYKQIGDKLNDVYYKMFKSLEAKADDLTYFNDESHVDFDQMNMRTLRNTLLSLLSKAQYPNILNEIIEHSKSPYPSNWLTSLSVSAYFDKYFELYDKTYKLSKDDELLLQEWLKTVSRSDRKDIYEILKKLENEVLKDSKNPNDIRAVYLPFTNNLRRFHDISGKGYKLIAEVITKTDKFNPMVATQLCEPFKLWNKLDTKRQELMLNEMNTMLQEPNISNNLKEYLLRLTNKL

[8] = target: T6, Protein skinhead-1 (Caenorhabditis elegans, UniProt P34707); format: functional
T6 sequence (P34707 whole entry): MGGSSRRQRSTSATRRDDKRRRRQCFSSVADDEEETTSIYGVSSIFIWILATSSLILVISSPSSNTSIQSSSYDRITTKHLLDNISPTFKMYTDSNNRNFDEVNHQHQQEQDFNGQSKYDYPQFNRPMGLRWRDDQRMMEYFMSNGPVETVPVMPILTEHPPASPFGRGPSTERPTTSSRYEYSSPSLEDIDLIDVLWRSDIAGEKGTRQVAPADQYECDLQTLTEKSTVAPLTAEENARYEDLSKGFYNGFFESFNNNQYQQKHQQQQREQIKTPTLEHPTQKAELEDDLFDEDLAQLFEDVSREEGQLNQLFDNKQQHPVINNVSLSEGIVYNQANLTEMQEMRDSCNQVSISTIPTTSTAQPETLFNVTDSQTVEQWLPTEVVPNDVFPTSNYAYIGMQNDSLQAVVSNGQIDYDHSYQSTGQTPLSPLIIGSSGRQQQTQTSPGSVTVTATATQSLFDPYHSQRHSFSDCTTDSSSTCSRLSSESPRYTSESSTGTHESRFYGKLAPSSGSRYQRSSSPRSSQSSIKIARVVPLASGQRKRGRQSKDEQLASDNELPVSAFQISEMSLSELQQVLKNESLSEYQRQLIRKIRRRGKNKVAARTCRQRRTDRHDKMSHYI

[9] = cells; format: functional, cell-based
[10] = cells; format: functional, cell-based; remark: listed apart in the source
[11] = system: Streptococcus sp. 'group A'; assay: Streptococcus pyogenes SK(-)GAS viability under kanamycin – luminescence, BacTiterGlo, confirmation, counter-screen for streptokinase expression inhibitor project, dose response (AID 1900); format: functional, organism-based
[12] = viability of uninfected HEp-2 cells – cell-based, HTS, cytotoxicity control for RSV inhibitor project, dose response (AID 2410); format: functional; details: human respiratory syncytial virus
[13] = system: Streptococcus; assay: GAS UMAA2166 growth inhibition – luminescence, BacTiterGlo, counter-screen for streptokinase expression inhibitor project, dose response (AID 1915); format: functional, organism-based;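 also: potency for reduction of bacterial viability or growth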
[14] = NIH-3T3 fibroblast cytotoxicity, dose response, cytotoxicity control, cell-based, fluorescence, Alamar Blue, secondary assay (AID 2327); format: functional;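 also: NIH-3T3 mouse fibroblasts cultured with fluconazole at 8 µg/mL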
[15] = fluconazole-exposed Candida albicans growth modulators – fluorescence, retest, confirmation (AID 2467); format: functional, cell-based

CCC(C)NC(C(=O)Nc1ccc(Cl)c([N+](=O)[O-])c1)c1ccccc1 (centres undefined)
EC50 [1]: 7.5 µM (active)

Cc1ccc(O)c(Sc2cc(C)ccc2O)c1
EC50 [1]: 3.76 µM (active)

OC(CNC1CCCc2ccccc21)COc1ccc2ccccc2c1 (centres undefined)
EC50 [2]: 5.96 µM (active)

Cc1ccc(-c2csc(N(CCCN(C)C)C(=O)c3ccco3)n2)cc1
EC50 [1]: 2.11 µM (active) | AC50 [3]: 11.7 µM (active)

Brc1ccc(CNc2ccc3ncccc3c2)cc1
CC50 [4]: > 40 µM (active) | AC50 [5]: > 380 µM (inactive) | EC50 [6]: > 380 µM (inactive)

O=C(O)c1ccc(NC(S)=NC(NC(=O)c2ccco2)C(Cl)(Cl)Cl)cc1 (centres undefined)
IC50 [7]: 60.5 µM (active)

Cc1cc(=O)oc2cc3c(cc12)OCCN3
IC50 [7]: 32.8 µM (active)

O=C(NC1CCN(Cc2ccccc2)CC1)C12CC3CC(CC(C3)C1)C2
EC50 [2]: 1.5 µM (active)

C[C@H](NC(=O)c1[nH]cnc1C(=O)Nc1ccc(Cl)cc1)C(=O)OC(C)(C)C
CC50 [4]: 16.7 µM (active) | IC50 [8]: > 100 µM (inactive)

Cc1c(O)c(CN2CCCC2)cc2c3c(c(=O)oc12)CCC3
IC50 [7]: 42.6 µM (active)

COC(=O)Cc1c(C)c2ccc(O)c(CN3CCCC(C)C3)c2oc1=O (centres undefined)
IC50 [7]: 30 µM (active)

O=Cc1cc(N=Nc2ccccc2Cl)ccc1O
EC50 [9]: > 350 µM (not active) | EC50 [10]: 198 µM (active) | EC50 [11]: 5.05 µM (active) | CC50 [12]: 7.07 µM (active) | EC50 [13]: 6.24 µM (active) | EC50 [14]: > 160 µM (inactive) | EC50 [1]: 15 µM (active) | EC50 [15]: > 38 µM (not active)

COc1ccc(-n2nc(C(=O)NCC(=O)NCCCN3CC(C)CC(C)C3)c3ccccc3c2=O)cc1Cl (centres undefined)
EC50 [2]: 1.5 µM (active)
